Key:
Assay in all cases: combination Emax (second highest fraction inhibited in the dose matrix, 72 h); higher = more inhibition; extreme values may be limits of the assay
[1] = tested on: CaR-1 (Colorectal Carcinoma)
How it was run: (§1)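 Bliss excess equals the observed combination effect minus the expected value EA + EB − EA·EB, where EA and EB are the effects of each agent alone. Combination Emax is the second-highest inhibition within the matrix. Inhibition was scaled from CellTiter-Glo 2.0 luminescence, with 0 set by vehicle wells and 1 by blank wells, after 72 hours of two-drug dosing of cells plated in 1536-well plates.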

[2] = tested on: RO82-W-1 (Thyroid Gland Carcinoma)
How it was run: as §1

[3] = tested on: ES4 (Ewing's Sarcoma)
How it was run: as §1

[4] = tested on: Daoy (Other Solid Carcinomas)
How it was run: as §1

[5] = tested on: DEL (T-Cell Non-Hodgkin's Lymphoma)
How it was run: as §1

[6] = tested on: CAL-148 (Breast Carcinoma)
How it was run: as §1

[7] = tested on: NCI-H82 (Small Cell Lung Carcinoma)
How it was run: as §1

[8] = tested on: COLO-205 (Colorectal Carcinoma)
How it was run: as §1

[9] = tested on: NOS-1 (Osteosarcoma)
How it was run: as §1

[10] = tested on: B-CPAP (Thyroid Gland Carcinoma)
How it was run: as §1

[11] = tested on: Ramos-2G6-4C10 (Burkitt's Lymphoma)
How it was run: as §1

[12] = tested on: RC-K8 (B-Cell Non-Hodgkin's Lymphoma)
How it was run: as §1

[13] = tested on: KURAMOCHI (Ovarian Carcinoma)
How it was run: as §1

[14] = tested on: UM-UC-3 (Bladder Carcinoma)
How it was run: as §1

[15] = tested on: TE-9 (Esophageal Squamous Cell Carcinoma)
How it was run: as §1

[16] = tested on: SNU-5 (Gastric Carcinoma)
How it was run: as §1

[17] = tested on: SK-ES-1 (Ewing's Sarcoma)
How it was run: as §1

[18] = tested on: HCC1806 (Breast Carcinoma)
How it was run: as §1

[19] = tested on: TCCSUP (Bladder Carcinoma)
How it was run: as §1

[20] = tested on: T98G (Glioblastoma)
How it was run: as §1

Compound	combination Emax [1]	combination Emax [2]	combination Emax [3]	combination Emax [4]	combination Emax [5]	combination Emax [6]	combination Emax [7]	combination Emax [8]	combination Emax [9]	combination Emax [10]	combination Emax [11]	combination Emax [12]	combination Emax [13]	combination Emax [14]	combination Emax [15]	combination Emax [16]	combination Emax [17]	combination Emax [18]	combination Emax [19]	combination Emax [20]
Cc1c2c(nn1C)CSCc1cc(n(C)n1)CSc1cc(c3ccccc3c1)OCCCc1c(C(=O)O)n(C)c3c-2c(Cl)ccc13 [AZD5991] + C=CCn1c(=O)c2cnc(Nc3ccc(N4CCN(C)CC4)cc3)nc2n1-c1cccc(C(C)(C)O)n1 [AZD1775] (first compound max 1 µM, partner max 1 µM)	0.283	0.506	0.502	0.979	1	1	0.966	0.684	0.982	0.467	1	0.617	0.796	0.271	0.366	0.565	0.985	0.972	0.596	0.674
CN(CCO)CC[C@H](CSc1ccccc1)Nc1ccc(S(=O)(=O)NC(=O)c2ccc(N3CCC([C@@H](O)c4ccccc4-c4ccc(Cl)cc4)CC3)cc2)cc1S(=O)(=O)C(F)(F)F [AZD4320] + CCN(CCO)CCCOc1ccc2c(Nc3cc(CC(=O)Nc4cccc(F)c4)[nH]n3)ncnc2c1 [AZD2811] (first compound max 1 µM, 7x7, partner max 1 µM)	0.208	0.46	0.631	0.715	0.804	1	0.512	0.974	0.667	0.57	0.909	0.917	0.327	0.226	0.451	0.45	1	0.201	0.543	0.554
Cc1nc(Nc2ncc(C(=O)Nc3c(C)cccc3Cl)s2)cc(N2CCN(CCO)CC2)n1 [Dasatinib] + CC(=O)Nc1cccc(-n2c(=O)n(C3CC3)c(=O)c3c(Nc4ccc(I)cc4F)n(C)c(=O)c(C)c32)c1 [Trametinib] (first compound max 2 µM, 7x7, partner max 1 µM)	0.57	0.436	0.215	0.41	0.433	0.254	0.203	0.728	0.921	0.79	0.238	0.124	0.937	0.685	0.271	0.654	0.24	0.624	0.266	0.744
Cn1cnc2c(F)c(Nc3ccc(Br)cc3Cl)c(C(=O)NOCCO)cc21 [Selumetinib] + C=CCn1c(=O)c2cnc(Nc3ccc(N4CCN(C)CC4)cc3)nc2n1-c1cccc(C(C)(C)O)n1 [AZD1775] (first compound max 10 µM, partner max 1 µM)	0.288	0.183	0.433	0.844	1	0.849	0.855	0.85	0.818	0.472	0.997	0.72	0.65	0.268	0.231	0.638	0.944	0.919	0.429	0.699
CC(=O)c1c(C)c2cnc(Nc3ccc(N4CCNCC4)cn3)nc2n(C2CCCC2)c1=O [Palbociclib] + CC1(C)CCC(CN2CCN(c3ccc(C(=O)NS(=O)(=O)c4ccc(NCC5CCOCC5)c([N+](=O)[O-])c4)c(Oc4cnc5[nH]ccc5c4)c3)CC2)=C(c2ccc(Cl)cc2)C1 [Venetoclax] (first compound max 10 µM, 7x7, partner max 1 µM)	0.0978	0.174	0.21	0.218	0.874	0.161	0.634	0.492	0.693	0.237	0.355	0.506	0.0917	0.175	0.114	0.336	0.749	0.268	0.152	0.355
NC1(C(=O)N[C@@H](CCO)c2ccc(Cl)cc2)CCN(c2ncnc3[nH]ccc23)CC1 [Capivasertib] + Cn1cnc2c(F)c(Nc3ccc(Br)cc3Cl)c(C(=O)NOCCO)cc21 [Selumetinib] (first compound max 10 µM, 7x7, partner max 10 µM)	0.564	0.277	0.398	0.472	0.578	0.981	0.903	0.778	0.388	0.499	0.435	0.367	0.444	0.533	0.398	0.756	0.429	0.595	0.373	0.49
COc1cccc(OCCCN)c1-c1cc(Nc2cnc(C#N)cn2)n[nH]1 [Prexasertib] + CCc1c2c(nc3ccc(O)cc13)-c1cc3c(c(=O)n1C2)COC(=O)[C@]3(O)CC [SN-38] (first compound max 1 µM, 7x7, partner max 0.3 µM)	0.799	0.511	0.878	0.999	1	0.935	1	0.938	0.524	0.968	1	1	0.897	0.987	0.8	1	1	0.996	0.934	0.904
Cc1c2c(nn1C)CSCc1cc(n(C)n1)CSc1cc(c3ccccc3c1)OCCCc1c(C(=O)O)n(C)c3c-2c(Cl)ccc13 [AZD5991] + C[C@@H](Nc1cc(F)cc(F)c1)c1cc(C(=O)N(C)C)cc2c(=O)cc(N3CCOCC3)oc12 [AZD8186] (first compound max 1 µM, 7x7, partner max 3 µM)	0.174	0.367	0.305	0.391	1	0.335	0.905	0.14	0.84	0.227	0.959	0.2	0.404	0.311	0.135	0.427	0.866	0.6	0.227	0.501
C[C@@H](c1ccc2nccn2c1)n1nnc2ncc(-c3cnn(C)c3)nc21 [Savolitinib] + CC1(C)CCC(CN2CCN(c3ccc(C(=O)NS(=O)(=O)c4ccc(NCC5CCOCC5)c([N+](=O)[O-])c4)c(Oc4cnc5[nH]ccc5c4)c3)CC2)=C(c2ccc(Cl)cc2)C1 [Venetoclax] (first compound max 1 µM, 7x7, partner max 1 µM)	0.171	0.169	0.113	0.152	0.0701	0.143	0.225	0.0209	0.0631	0.155	0.169	0.129	0.15	0.143	0.152	0.847	0.197	0.142	0.143	0.159
COc1cc2ncnc(Nc3ccc(F)c(Cl)c3)c2cc1OCCCN1CCOCC1 [Gefitinib] + CC(C)n1c(=O)n(C)c2cnc3cc(F)c(-c4ccc(OCCCN5CCCCC5)nc4)cc3c21 [AZD1390] (first compound max 10 µM, 7x7, partner max 0.3 µM)	0.227	0.164	0.3	0.0924	0.187	0.142	0.386	0.135	0.714	0.108	0.148	0.105	0.128	0.0932	0.0944	0.178	0.341	0.436	0.114	0.12
NC1(C(=O)N[C@@H](CCO)c2ccc(Cl)cc2)CCN(c2ncnc3[nH]ccc23)CC1 [Capivasertib] + CC(=O)c1c(C)c2cnc(Nc3ccc(N4CCNCC4)cn3)nc2n(C2CCCC2)c1=O [Palbociclib] (first compound max 10 µM, 7x7, partner max 10 µM)	0.436	0.218	0.412	0.397	0.892	0.964	0.836	0.587	0.607	0.523	0.42	0.435	0.29	0.491	0.227	0.379	0.655	0.516	0.317	0.6
COc1nnc2ccc(N3CCC(c4ccc(OCCN5CCN(C)C(=O)[C@H]5C)cc4)CC3)nn12 [AZD5153] + Cc1c2c(nn1C)CSCc1cc(n(C)n1)CSc1cc(c3ccccc3c1)OCCCc1c(C(=O)O)n(C)c3c-2c(Cl)ccc13 [AZD5991] (first compound max 1 µM, 7x7, partner max 1 µM)	0.434	0.411	0.63	0.801	1	1	0.968	0.79	1	0.706	1	0.832	0.927	0.281	0.57	0.561	0.948	0.755	0.32	0.459

Reference: the supplement of paper PMC11061612
